Results published in patent US20220184082A1, “CANCER THERAPY USING 3,5-DISUBSTITUTED BENZENE ALKYNYL COMPOUND AND PEMBROLIZUMAB” (TAIHO PHARMACEUTICAL CO., LTD., priority 2019, published 2022).

B1: vofatamab: an anti-FGFR3 antibody (antibody, chains of the INN, looked up, V domains shown)
VH: EVQLVESGGGLVQPGGSLRLSCAASGFTFTSTGISWVRQAPGKGLEWVGRIYPTSGSTNYADSVKGRFTISADTSKNTAYLQMNSLRAEDTAVYYCARTYGIYDLYVDYTEYVMDYWGQGTLVTVSS
VL: DIQMTQSPSSLSASVGDRVTITCRASQDVDTSLAWYKQKPGKAPKLLIYSASFLYSGVPSRFSGSGSGTDFTLTISSLQPEDFATYYCQQSTGHPQTFGQGTKVEIK

How the values were obtained:
[1] = system: mouse breast cancer cell line 4T1; details: 4T1-implanted BALB/cAJcl mouse; oral daily 14 days, 15 and 30 mg/kg/day; Day 15
Experimental: On the day following the final administration (Day 15), lymphocyte fractions were isolated from the tumor, spleen, and peripheral blood, and myeloid-derived suppressor cells (MDSCs) (CD11b^+/Gr-1^+ cells), CD4-positive T cells, and CD8-positive T cells were measured using a cell sorter.

urothelial cancer = details: cited from earlier work

| Molecule | CD4-positive T cells in the peripheral blood lymphocyte fractions compared with the control [1] | CD8-positive T cells in the peripheral blood lymphocyte fractions compared with the control [1] | CD8-positive T cells in the spleen lymphocyte fractions compared with the control [1] | MDSCs in the peripheral blood lymphocyte fractions compared with the control [1] | Response by combined use with pembrolizumab (urothelial cancer; urothelial cancer patients without FGFR genetic aberration, combined with pembrolizumab) | Sensitivity state of the cancer to immune checkpoint inhibitors (urothelial cancer; urothelial cancer patients) |
| --- | --- | --- | --- | --- | --- | --- |
| C=CC(=O)N1CC[C@H](n2nc(C#Cc3cc(OC)cc(OC)c3)c3c(N)ncnc32)C1 [compound 1, (S)-1-(3-(4-amino-3-((3,5-dimethoxyphenyl)ethynyl)-1H-pyrazolo[3,4-d]pyrimidin-1-yl)pyrrolidin-1-yl)prop-2-en-1-one] | tended to increase in a dose-dependent manner | tended to increase in a dose-dependent manner | tended to increase in a dose-dependent manner | tended to decrease in a dose-dependent manner | – | – |
| B1 | – | – | – | – | response by combined use with pembrolizumab is observed | change from a “cold” state (low sensitivity to immune checkpoint inhibitors) to a “hot” state (high sensitivity to immune checkpoint inhibitors) |
